In brackets after ≈: the same amount, converted by molar mass. Where two headings read alike, the source gives them in different places.
Experiments:
[1] = system: N. gonorrhoeae isolates; test: MIC against panel of N. gonorrhoeae clinical isolates; assay type: cell-based, Neisseria gonorrhoeae
[2] = system: L. crispatus; test: MIC against commensal vaginal Lactobacillus strains; assay type: cell-based, Lactobacillus crispatus; conditions: for MIC Range: Table 6, L. crispatus (3 strains); for MIC: Lactobacillus crispatus
Description: (§1) N. gonorrhoeae pathogenesis greatly depends on colonization of the reproductive tract. One of the natural barriers of such colonization is an intact healthy microbiome. Species of lactobacilli present in the genitourinary tract play a significant role in hindering colonization by Neisseria(1).
(§2) A healthy vaginal microbiome that is dominated by Lactobacillus spp. is less susceptible to N. gonorrhoeae infection and other sexually transmitted diseases (STDs). […] We tested the activity of azoles against important members of healthy vaginal microbiota that inhibit N. gonorrhoeae colonization.

[3] = system: L. gasseri; test: as above; assay type: cell-based, Lactobacillus gasseri; conditions: for MIC Range: Table 6, L. gasseri (4 strains); for MIC: Lactobacillus gasseri
Description: as §1, §2

[4] = system: L. jensenii; test: as above; assay type: cell-based, Lactobacillus jensenii; conditions: for MIC Range: Table 6, L. jensenii (7 strains); for MIC: Lactobacillus jensenii
Description: as §1, §2

[5] = system: L. johnsonii; test: as above; assay type: cell-based, Lactobacillus johnsonii; conditions: for MIC Range: Table 6, L. johsonii (2 strains)
Description: as §1, §2

[6] = system: commensal vaginal lactobacilli strains; test: MIC against all commensal vaginal Lactobacillus strains tested; assay type: cell-based, Lactobacillus spp.; conditions: Lactobacillus
Description: as §1, §2

[7] = MIC against normal gut microbiota; assay type: cell-based
Description: (§3) Disrupting the intestinal microbiota using broad-spectrum antimicrobial therapy increases the susceptibility of hosts to C. difficile colonization.

[8] = system: Bacteroides dorei; test: MIC against normal gut microbiota; assay type: cell-based; conditions: Bacteroides dorei (2 strains)
Description: as §3

[9] = system: Bacteroides fragilis; test: MIC against normal gut microbiota; assay type: cell-based; conditions: Bacteroides fragilis (4 strains)
Description: as §3

[10] = system: Bifidobacterium angulatum; test: MIC against normal gut microbiota; assay type: cell-based; conditions: Bifidobacterium angulatum (1 strain)
Description: as §3

[11] = system: Enterococcus faecalis; test: MIC against normal gut microbiota; assay type: cell-based; conditions: Enterococcus faecalis (1 strain)
Description: as §3

[12] = system: Enterococcus faecium; test: MIC against normal gut microbiota; assay type: cell-based; conditions: Enterococcus faecium (1 strain)
Description: as §3

[13] = system: Escherichia coli; test: MIC against normal gut microbiota; assay type: cell-based; conditions: Escherichia coli (1 strain)
Description: as §3

[14] = system: Lactobacillus brevis; test: MIC against normal gut microbiota; assay type: cell-based; conditions: Lactobacillus brevis (1 strain)
Description: as §3

[15] = system: Lactobacillus casei; test: MIC against normal gut microbiota; assay type: cell-based; conditions: Lactobacillus casei (1 strain)
Description: as §3

[16] = system: Lactobacillus rhamnosus; test: MIC against normal gut microbiota; assay type: cell-based; conditions: Lactobacillus rhamnosus (1 strain)
Description: as §3

[17] = system: Staphylococcus aureus; test: MIC against normal gut microbiota; assay type: cell-based; conditions: Staphylococcus aureus (1 strain)
Description: as §3

[18] = system: N. gonorrhoeae; test: Post-antibiotic effect (PAE) against N. gonorrhoeae; assay type: cell-based, Neisseria gonorrhoeae; conditions: 1 h exposure at 10×MIC
Description: Determining the PAE of a new antimicrobial is an important step for dosing and has clinical importance.

[19] = system: N. meingitidis; test: MIC against Neisseria spp.; assay type: cell-based, Neisseria meningitidis; conditions: N. meingitidis (5 strains)
[20] = system: N. flavescens; test: MIC against Neisseria spp.; assay type: cell-based; conditions: N. flavescens (1 strain)
Description: (§4) Intrigued by the specificity and potent activity of azoles against N. gonorrhoeae, we evaluated the extent of the azoles' antibacterial activity against other Neisseria species (Table 8).

[21] = system: N. lactamica; test: MIC against Neisseria spp.; assay type: cell-based; conditions: N. lactamica (1 strain)
Description: as §4

[22] = system: N. mucosa; test: MIC against Neisseria spp.; assay type: cell-based; conditions: N. mucosa (1 strain)
Description: as §4

[23] = Table 1, 104 N. gonorrhoeae isolates
[24] = Table 3, 103 N. gonorrhoeae isolates with different resistance profiles
[25] = Bacteroides adolescentis (2 strains)

For `C[C@@H]1CN2c3c(cc4c(N5C(=O)OC[C@@H]5C)noc4c3F)CC3(C(=O)NC(=O)NC3=O)[C@H]2[C@H](C)O1` [Zoliflodacin], the MIC50 ([1]; Neisseria gonorrhoeae) was 0.06 µg/mL (≈ 0.123 µM), the MIC90 ([1]; Neisseria gonorrhoeae) was 0.125 µg/mL (≈ 0.256 µM) and the “MIC Range” value [1, 23] was 0.004 to 0.5 µg/mL. The MIC50 [1, 24] was 0.06 µg/mL (≈ 0.123 µM), the MIC90 [1, 24] was 0.125 µg/mL (≈ 0.256 µM) and the “MIC Range” value [1, 24] was 0.004 to 0.25 µg/mL. The “MIC Range” value [2] was ≤1 µg/mL, the “MIC Range” value [3] was ≤1 µg/mL and the “MIC Range” value [4] was ≤1 µg/mL. The “MIC Range” value [5] was ≤1 µg/mL, the MIC [6] was < 1 µg/mL and the “MIC Range” value [7, 25] was 1 µg/mL (≈ 2.05 µM). For the same compound, the “MIC Range” value ([7]; Bacteroides breve (2 strains)) was 4 µg/mL (≈ 8.21 µM), the “MIC Range” value ([7]; Bacteroides longum (2 strains)) was 1 to 2 µg/mL and the “MIC Range” value [8] was 0.5 to 1 µg/mL. For the same compound, the “MIC Range” value [9] was 2 to 8 µg/mL, the “MIC Range” value [10] was 1 µg/mL (≈ 2.05 µM) and the “MIC Range” value [11] was 0.5 µg/mL (≈ 1.03 µM). For the same compound, the “MIC Range” value [12] was 2 µg/mL (≈ 4.1 µM), the “MIC Range” value [13] was 0.25 µg/mL (≈ 0.513 µM) and the “MIC Range” value [14] was 1 µg/mL (≈ 2.05 µM). For the same compound, the “MIC Range” value [15] was <0.125 µg/mL, the “MIC Range” value [16] was 0.125 µg/mL (≈ 0.256 µM) and the “MIC Range” value [17] was 0.125 µg/mL (≈ 0.256 µM).
Compound `CCC(C)n1ncn(-c2ccc(N3CCN(c4ccc(OCC5COC(Cn6cncn6)(c6ccc(Cl)cc6Cl)O5)cc4)CC3)cc2)c1=O` (stereo not drawn) [Itraconazole] has an MIC50 ([1]; Neisseria gonorrhoeae, Table 1, 104 N. gonorrhoeae isolates, read-out: MIC50) of 1 µg/mL (≈ 1.42 µM), an MIC90 ([1]; Neisseria gonorrhoeae, Table 1, 104 N. gonorrhoeae isolates, read-out: MIC90) of 2 µg/mL (≈ 2.83 µM) and an MIC50 ([1]; Neisseria gonorrhoeae, Table 3, 103 N. gonorrhoeae isolates with different resistance profiles, read-out: MIC50) of 1 µg/mL (≈ 1.42 µM). The MIC90 ([1]; Neisseria gonorrhoeae, Table 3, 103 N. gonorrhoeae isolates with different resistance profiles, read-out: MIC90) was 2 µg/mL (≈ 2.83 µM), the “MIC Range” value [1, 23] was 0.03 to 4 µg/mL and the “MIC Range” value [1, 24] was 0.03 to 8 µg/mL. The MIC ([2]; L. crispatus HM-103) was > 256 µg/mL, the MIC ([2]; L. crispatus HM-371) was > 256 µg/mL and the MIC ([2]; L. crispatus HM-638) was > 256 µg/mL. For the same compound, the “MIC Range” value [2] was ≥256 µg/mL, the MIC ([3]; L. gasseri HM-407) was > 256 µg/mL and the MIC ([3]; L. gasseri HM-642) was > 256 µg/mL. For the same compound, the MIC ([3]; L. gasseri HM-644) was > 256 µg/mL, the MIC ([3]; L. gasseri HM-647) was > 256 µg/mL and the “MIC Range” value [3] was ≥256 µg/mL. The MIC ([4]; L. jensenii HM-105) was > 256 µg/mL, the MIC ([4]; L. jensenii HM-372) was > 256 µg/mL and the MIC ([4]; L. jensenii HM-374) was > 256 µg/mL. For the same compound, the MIC ([4]; L. jensenii HM-639) was > 256 µg/mL, the MIC ([4]; L. jensenii HM-640) was > 256 µg/mL and the MIC ([4]; L. jensenii HM-645) was > 256 µg/mL. The MIC ([4]; L. jensenii HM-646) was > 256 µg/mL, the “MIC Range” value [4] was ≥256 µg/mL and the MIC ([5]; Lactobacillus johnsonii, L. johnsonii HM-643) was > 256 µg/mL. The “MIC Range” value [5] was ≥256 µg/mL, the PAE ([18]; strain FA 1090) was 4 h and the PAE ([18]; strain WHO P) was 4 h. For the same compound, the PAE ([18]; strain WHO Y) was 4 h, the “MIC Range” value [7, 25] was >256 µg/mL and the “MIC Range” value ([7]; Bacteroides breve (2 strains)) was >256 µg/mL. The “MIC Range” value ([7]; Bacteroides longum (2 strains)) was >256 µg/mL, the “MIC Range” value [8] was >256 µg/mL and the “MIC Range” value [9] was >256 µg/mL. For the same compound, the “MIC Range” value [10] was >256 µg/mL, the “MIC Range” value [11] was >256 µg/mL and the “MIC Range” value [12] was >256 µg/mL. For the same compound, the “MIC Range” value [13] was >256 µg/mL, the “MIC Range” value [14] was >256 µg/mL and the “MIC Range” value [15] was >256 µg/mL. For the same compound, the “MIC Range” value [16] was >256 µg/mL, the “MIC Range” value [17] was >256 µg/mL and the “MIC Range” value [19] was 0.125 to 1 µg/mL. For the same compound, the “MIC Range” value [20] was 64 µg/mL (≈ 90.7 µM), the “MIC Range” value [21] was 4 µg/mL (≈ 5.67 µM) and the “MIC Range” value [22] was 64 µg/mL (≈ 90.7 µM).
